How the values were obtained:
[1] = tested on: human DR molecules; settings: cited from earlier work
[2] = tested on: T cells of PBMCs from lupus patients; settings: randomly selected lupus patients; cited from earlier work
[3] = tested on: CD4+ effector T cells; assay type: cell-based, human

Sequence	binding to soluble HLA class II molecules [1]	lupus patients whose PBMCs contain T cells that proliferate in response to the peptide [2] [%]	suppression of activated effector CD4+ T cells (CD4+/CD25-high/FoxP3-intermediate) reacting to Tetanus Toxoid [3]	suppression of proliferation of CD4+ effector T cells (CFSE) [3]
RIHMVYSKRSGKPRGYAFIEY (listed as Homo sapiens) [peptide 131-151]	binds to a large panel of human DR molecules	40	–	–
KTLYLQMNSLRAEDTAKH (listed as Homo sapiens) [SEQ ID NO: 7]	–	–	strongly suppressed	Suppressed

Reference: patent publication US20210308182A1, “REGULATORY T CELL EPITOPES” (EpiVax Inc., priority 2020, published 2021)
